{"source": "paper PMC3692431", "about": "“Anticonvulsant Activity of B2, an Adenosine Analog, on Chemical Convulsant-Induced Seizures” (PLoS ONE, 2013)", "key": {"[1]": {"test_system": "strychnine-induced seizures", "experiment": "Strychnine-induced seizures in mice", "assay_type": "in vivo", "settings": "strychnine 1.5 mg/kg i.p.; for mortality rate: control 88%; for latency to seizure onset prolonged by: vs control", "method": "(§1) KA was dissolved in saline and the pH was adjusted to neutrality. The final concentration of KA was 0.7 µg/µl, and the convulsant dose was 1 µl (i.c.v.). […] The selective adenosine receptor antagonist DPCPX or SCH58261 was administered (i.p.) 5 min before administration of B2 or vehicle.\n(§2) Mice were injected with B2 (1.25, 5, 20 mg/kg), carbamazepine (80 mg/kg) or vehicle 20 min before administration of strychnine (1.5 mg/kg) or 4-AP (13 mg/kg). […] The time of latency to seizure onset and mortality rate were recorded."}, "4-AP-induced seizures": {"test_system": "4-AP-induced seizures", "experiment": "4-AP-induced seizures in mice", "assay_type": "in vivo", "settings": "4-AP 13 mg/kg; for latency of seizure onset prolonged by: vs control", "method": "as §1, §2"}, "A1 adenosine receptor": {"target": "T1, A1 adenosine receptor (Rattus norvegicus, UniProt P25099)", "T1 construct": "from tissue; host or cells: cerebral cortex of male Wistar rats", "T1 sequence (P25099 1-326)": "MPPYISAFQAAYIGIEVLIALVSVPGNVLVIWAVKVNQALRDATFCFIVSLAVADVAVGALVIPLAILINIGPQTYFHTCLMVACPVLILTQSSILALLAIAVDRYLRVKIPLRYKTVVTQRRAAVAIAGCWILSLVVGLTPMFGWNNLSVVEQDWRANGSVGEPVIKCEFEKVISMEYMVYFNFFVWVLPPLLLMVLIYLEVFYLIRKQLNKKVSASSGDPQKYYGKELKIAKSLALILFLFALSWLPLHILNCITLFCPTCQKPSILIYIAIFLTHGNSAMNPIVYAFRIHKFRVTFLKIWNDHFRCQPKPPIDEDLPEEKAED", "experiment": "Radioligand binding, [3H]DPCPX displacement in rat cortical membranes", "settings": "0.2 nM [3H]DPCPX"}, "[2]": {"target": "T2, recombinant human adenosine A2A receptor (Homo sapiens, UniProt P29274)", "T2 construct": "expressed in transfected cells; host or cells: CHO cells (provided by Professor R. B. Su)", "T2 sequence (P29274 whole entry)": "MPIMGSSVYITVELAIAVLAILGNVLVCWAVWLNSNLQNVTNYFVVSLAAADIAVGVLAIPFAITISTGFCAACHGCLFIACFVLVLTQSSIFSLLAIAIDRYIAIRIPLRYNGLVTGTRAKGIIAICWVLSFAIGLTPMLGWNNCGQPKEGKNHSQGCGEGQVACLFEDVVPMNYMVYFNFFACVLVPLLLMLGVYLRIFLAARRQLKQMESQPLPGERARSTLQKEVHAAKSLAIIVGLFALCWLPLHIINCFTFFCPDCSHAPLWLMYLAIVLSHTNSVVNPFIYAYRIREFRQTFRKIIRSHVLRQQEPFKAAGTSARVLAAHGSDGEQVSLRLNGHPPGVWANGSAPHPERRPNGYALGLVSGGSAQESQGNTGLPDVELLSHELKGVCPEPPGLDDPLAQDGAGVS", "experiment": "cAMP accumulation assay in CHO cells expressing A2A receptor", "assay_type": "cell-based", "settings": "CHO cells expressing human A2A receptors; read-out: EC50, elevation of cAMP levels", "method": "Chinese hamster ovary (CHO) cells expressing recombinant human A1/A2A receptors (provided by Professor R. B. Su of the Institute of Pharmacology and Toxicology, Academy of Military Medical Sciences, Beijing, China) were cultured in Dulbecco’s Modified Eagles Medium with the F12 nutrient mixture (DMEM/F12) containing no nucleosides, and with 10% fetal calf serum, penicillin (100 U/ml), streptomycin (100 µg/ml), L-glutamine (2 mM), and Geneticin at 37°C in a 5% CO2/95% atmosphere. The cells used to determine cAMP levels had viability >95%, as assessed by trypan blue exclusion.\nIntracellular cyclic adenosine monophosphate (cAMP) levels were measured using a competitive protein binding method. To measure A1/A2A receptor-mediated accumulation of cAMP, cells were grown as confluent monolayers in 24-well cluster dishes. The cells were washed twice with 2 mL of medium containing 20 mM HEPES that had been prewarmed to 37°C, pH 7.4. The cells were then preincubated for 15 min in 0.4 mL fresh medium containing 30 µM of the cAMP phosphodiesterase inhibitor rolipram. B2 was added in 0.1 mL of medium and incubations continued for 15 min. The reaction was then terminated by removing the supernatant, and cells were lysed with the addition of 500 µl of 0.1 M ice-cold HCl. The cell lysate was centrifuged (4,000×g) at 4°C for 10 min. […] Bound radioactivity was measured by liquid scintillation spectrometry."}, "[3]": {"test_system": "c-Fos expression in the hippocampus", "experiment": "PTZ-induced c-Fos expression, immunohistochemistry", "assay_type": "in vivo, mice", "settings": "B2 5 mg/kg, PTZ 85 mg/kg, 2 h", "method": "Mice were injected with either B2 (5 mg/kg) or vehicle 20 min before administration of PTZ (85 mg/kg). Two hours later, mice were either anesthetized for c-Fos analysis using immunohistochemistry or decapitated or western blotting.\nMice were anesthetized with chloral hydrate (400 mg/kg, i.p.) and perfused through the heart with saline solution followed by ice-cold 4% paraformaldehyde (PFA) in 0.1 M phosphate buffer (pH 7.4). Their brains were then removed, post-fixed in 4% PFA for 24 h at 4°C, and immersed in 30% sucrose at 4°C until they sank. Thereafter, coronal sections (30 µm) were cut using a freezing microtome (Leica RM2125).\nSections were immunostained using previously described methods. Sections were first immersed in 0.3% Triton X-100 for 10 min at room temperature, and then in 3% hydrogen peroxide for 10 min to quench endogenous peroxidase activity. Sections were then rinsed twice in 10 mM phosphate-buffered saline (pH 7.2) containing 0.3% Triton X-100. This was followed by incubation with diluted normal blocking serum (Vector Elite ABC kit) for 30 min and then 1∶800 rabbit polyclonal anti-c-Fos (primary) antibodies overnight at 4°C. Biotinylated secondary antibody solutions and VectaStain® Elite ABC reagents were applied. The peroxidase reaction was visualized using DAB with nickel ammonium sulfate for black staining. Sections were mounted, dehydrated and cover slipped. […]"}, "[4]": {"test_system": "rat adenosine A2A receptors", "parameters": "method as in PMID 22242450", "settings": "cited from earlier work"}}}
{"smiles": "COc1cc(CNc2ncnc3c2ncn3[C@@H]2O[C@H](CO)[C@@H](O)[C@H]2O)ccc1O", "note": "[B2, N^6-(3-methoxyl-4-hydroxybenzyl) adenine riboside]", "values": [{"measurement": "mortality rate", "setting": "[1]; B2 1.25 mg/kg i.p.", "value": 71, "unit": "%"}, {"measurement": "latency to seizure onset prolonged by", "setting": "[1]; B2 1.25 mg/kg i.p.", "value": 45, "unit": "%"}, {"measurement": "mortality rate", "setting": "[1]; B2 5 mg/kg i.p.", "value": 43, "unit": "%"}, {"measurement": "latency to seizure onset prolonged by", "setting": "[1]; B2 5 mg/kg i.p.", "value": 88, "unit": "%"}, {"measurement": "mortality rate", "setting": "[1]; B2 20 mg/kg i.p.", "value": 57, "unit": "%"}, {"measurement": "latency to seizure onset prolonged by", "setting": "[1]; B2 20 mg/kg i.p.", "value": 89, "unit": "%"}, {"measurement": "latency of seizure onset prolonged by", "setting": "4-AP-induced seizures; B2 1.25 mg/kg i.p.", "value": 25, "unit": "%"}, {"measurement": "latency of seizure onset prolonged by", "setting": "4-AP-induced seizures; B2 5 mg/kg i.p.", "value": 135, "unit": "%"}, {"measurement": "latency of seizure onset prolonged by", "setting": "4-AP-induced seizures; B2 20 mg/kg i.p.", "value": 96, "unit": "%"}, {"measurement": "effect on mortality rate", "setting": "4-AP-induced seizures; B2 1.25, 5, 20 mg/kg i.p., control 100%", "value": "did not have a significant effect"}, {"measurement": "Ki", "setting": "A1 adenosine receptor", "value": 0.42, "unit": "µM"}, {"measurement": "EC50", "setting": "[2]", "value": 0.32, "unit": "µM"}, {"measurement": "effect on PTZ-induced increase of c-Fos expression in the CA2/3 region", "setting": "[3]", "value": "minor effect"}, {"measurement": "effect on PTZ-induced increase of c-Fos expression in the dentate gyrus and CA1", "setting": "[3]", "value": "significantly reversed"}, {"measurement": "affinity for rat adenosine A2A receptors", "setting": "[4]", "value": "moderate affinity"}]}
